Laboratory results as given in ChEMBL document CHEMBL1201862, “PubChem BioAssay data set” (2004).
Activity calls are given as the source filed them. Rule as the data show it: actives have a measured IC50 and inactives only a lower limit.

Target: Envelope glycoprotein gp160 (Human immunodeficiency virus 1, UniProt Q6QLK5)
Test: inhibitors of HIV fusion peptide binding, primary screen, biochemical, uHTS, fluorescence dequenching (AID 1986)

Envelope glycoprotein gp160, sequence (Q6QLK5 whole entry, the tested form may be a part): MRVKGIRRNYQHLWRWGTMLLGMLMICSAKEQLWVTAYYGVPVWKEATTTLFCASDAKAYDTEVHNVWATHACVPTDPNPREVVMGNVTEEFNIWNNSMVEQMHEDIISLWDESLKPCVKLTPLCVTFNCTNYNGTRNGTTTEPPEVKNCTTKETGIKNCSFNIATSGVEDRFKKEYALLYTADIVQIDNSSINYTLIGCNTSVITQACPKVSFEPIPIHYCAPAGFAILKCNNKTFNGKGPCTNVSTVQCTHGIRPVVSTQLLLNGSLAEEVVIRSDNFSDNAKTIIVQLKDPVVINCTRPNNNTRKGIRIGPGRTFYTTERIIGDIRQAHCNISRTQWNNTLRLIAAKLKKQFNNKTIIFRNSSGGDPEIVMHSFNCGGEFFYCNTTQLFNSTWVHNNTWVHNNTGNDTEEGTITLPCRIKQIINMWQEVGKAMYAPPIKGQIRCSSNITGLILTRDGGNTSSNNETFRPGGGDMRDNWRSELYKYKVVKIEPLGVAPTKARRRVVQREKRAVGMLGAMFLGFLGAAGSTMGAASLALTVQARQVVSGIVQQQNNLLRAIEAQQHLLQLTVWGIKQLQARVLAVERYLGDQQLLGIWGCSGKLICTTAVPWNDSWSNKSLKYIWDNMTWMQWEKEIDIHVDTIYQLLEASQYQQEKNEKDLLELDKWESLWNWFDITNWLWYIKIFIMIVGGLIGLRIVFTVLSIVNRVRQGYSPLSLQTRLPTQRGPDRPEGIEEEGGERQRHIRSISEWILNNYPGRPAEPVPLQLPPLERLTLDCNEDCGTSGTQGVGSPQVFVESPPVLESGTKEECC

| Structure (SMILES) | IC50 |
| --- | --- |
| N#Cc1c(O)nc(SCc2cccc(Cl)c2)nc1-c1ccccc1 | 24.8 µM (active) |
| O=C(O)c1cc(N/N=C/c2ccc(-c3ccccc3)cc2)ccc1Cl | 16.1 µM (active) |
